In patent publication US20250346885A1, “SYSTEMS AND METHODS FOR TARGETED CONTINUOUS GENOME MUTAGENESIS” (The Broad Institute, Inc., priority 2023, published 2025):

What was measured:
[1] = test system: HEK293FT cells; test: CellTiter-Glo cell viability after transfection of HACE constructs; format: cell-based, human
Experimental: The effects of different HACE constructs on cell viability were then quantified. To do so, the cell viability was quantified using a luciferase-based ATP-assay (CellTiter-Glo) across various helicase constructs both with and without deaminase along with a loci-targeting sgRNA and nCas9 (FIG. 11A).
Cell viability was measured using the CellTiter-Glo Luminescent Cell Viability Assay (Promega) following the manufacturer's protocols. Briefly, HEK293FT cells were seeded at a density of 10,000 cells per 100 μL per well in a 96-well plate in biological triplicates. The following day, cells were transfected with respective HACE plasmids according to the above protocol. Cell viability was measured 72 h after transfection. Luminescence readings were performed using a SpectraMax M5 (Molecular Devices) plate reader.

[2] = test system: HEK3, TNF, and IL6 loci; test: HACE editing rate and range with helicase and nickase variants (1000 bp window, local rate in 100 bp bins); format: cell-based, human; conditions: nCas9 D10A versus nCas9 H840A
Experimental: In one embodiment, HACE constructs were tested with different helicase enzymes.
The editing range of different HE constructs was then characterized. For each helicase, nickase, and loci combination, the respective HE, nCas9, and sgRNA combination was transfected into HEK293FT cells, genomic DNA was harvested after three days, and then a 1000 bp window was amplified by PCR for sequencing. The target-strand and non-target strand nickase had similar long range editing performance (FIG. 5C-D, FIG. 10B-C). […] Thus, the nCas9 binding and DNA-sgRNA duplex might obstruct the helicase loading on the non-nicked single-stranded DNA.
In another embodiment, the local average mutation rate was calculated in 100 bp bins for each genomic loci (FIG. 10D). […]
For long amplicon (˜2000 bp) sequencing, the targeted region was amplified using Phusion U Hot Start PCR master mix in a 20 μL reaction. […] The concentration of each sample was measured by Qubit (Thermo Fisher Scientific). […] Sequencing was performed on a NextSeq (Illumina) with paired-end reads (read1,100 bp; index1, 8 bp; index2, 8 bp; read2, 100 bp).
To calculate the mutation rate, it was filtered for base positions with a sequencing coverage of at least 10,000. […] The average G>A editing rate was calculated by extracting all positions where “G” was the reference base, then taking the average of the per base G>A editing rate. […]

[3] = test system: double-stranded DNA; conditions: average base pairs unwound in a single binding event; cited from earlier work

preference of target and non-target strand nickase [2]: prefer both nickase variants equally
Substance: BLM: human helicase; in b329, b331 and b335 the HE constructed with it
cell viability (CellTiter-Glo) [1]: did not result in a significant decrease in cell viability | processivity range [3]: over 200 base pairs
